Measured values from US20040102652A1, “Optically active2-aminotetralin derivatives, the processes for the preparation thereof and the therapeutical use of pharmaceutical compositions containing them” (priority 2000, published 2004).
“Also recorded” adds a separate entry of the source. Where two headings read alike, the source gives them in different places.

How the values were obtained:
[1] = molecular target: Pre-synaptic DA2 receptor (Oryctolagus cuniculus, UniProt G1T1Q0); assay: Electrically stimulated rabbit rectococcigeus muscle, inhibition of contraction; settings: read-out: effectiveness (α)
Method: (§2) The pharmacological activity of the enantiomers toward the same receptors was also tested in isolated tissue preparations. […] EC50 is the concentration inducing 50% of the maximal response and is expressed in mols/liter (M).

[2] = molecular target: T1, β2-receptors (Cavia porcellus, UniProt Q8K4Z4); assay: Guinea-pig tracheal strips contracted with carbachol, relaxing effect
T1 construct: was also tested in isolated tissue preparations; from tissue; host or cells: guinea-pig tracheal strips

[3] = molecular target: Central α1-receptor; assay: Binding study, rat cerebral cortex, [3H]-prazosin
Method: (§1) The affinity of the enantiomers for adrenergic and dopaminergic receptors was tested by binding studies in cerebral and peripheral tissues. The results are reported in Table 1 compared with CHF 1024 racemate in terms of inhibition constant (Ki) expressed as nanomolar concentration (nM).

[4] = molecular target: T2, Central DA1 receptor (Rattus norvegicus, UniProt P18901); assay: Binding study, rat striatum, [3H]-SCH23390
T2 construct: from tissue; host or cells: rat striatum
Method: as §1

[5] = system: anaesthetized normotensive rats; assay: Arterial pressure in anaesthetized normotensive rats, intravenous infusion; format: in vivo, rat; settings: intravenous infusion for 30 min
Method: In anaesthetized normotensive rats with recording of the arterial pressure, the effects induced by intravenous infusion for 30 min of CHF 1024 enantiomers compared with the racemate were evaluated. Control animals only received the vehicle. The results are reported in FIG. 1 as mean values and standard error.

[6] = system: Central α2-receptor; assay: Binding study, rat cerebral cortex, [3H]-rauwolscine; settings: for Ki: rat cerebral cortex, [3H]-rauwolscine
Method: as §1

[7] = molecular target: β1-receptor (Cavia porcellus, UniProt H0W3H1); settings: guinea pig, read-out: effectiveness (α)
[8] = molecular target: Pre-synaptic DA2 and α2 receptor; assay: Perfused rabbit ear artery, inhibition of electrically-induced contraction; settings: for pD2 (−log EC50): EC50 in M
Method: as §2

[9] = molecular target: Central DA2-receptor (Rattus norvegicus, UniProt P61169); assay: Binding study, rat striatum, [3H]-spiperone; settings: for Ki: rat striatum, [3H]-spiperone
Method: as §1

[10] = molecular target: T3, β2-receptor (Rattus norvegicus, UniProt P10608); assay: Binding study, rat lung, [3H]-(−)dihydroalprenolol
T3 construct: from tissue; host or cells: rat lung
Method: as §1

[11] = molecular target: T4, β1-receptor (Rattus norvegicus, UniProt P18090); assay: Binding study, rat lung, [3H]-(−)dihydroalprenolol
T4 construct: from tissue; host or cells: rat lung
Method: as §1

[12] = system: conscious spontaneously hypertensive rats; assay: Arterial pressure and heart rate in conscious spontaneously hypertensive rats (telemetry); format: in vivo, rat; settings: for recovery to basal values after treatment: after interruption of s.c. treatment; for effect on heart rate (words, summary): subcutaneous administration for 7 days
[13] = system: α1 receptor; settings: background statement; cited from earlier work
[14] = Diffraction studies of crystal modifications; settings: temperature dependent
[15] = after oral administration of the racemate
[16] = system: plasma and tissular esterases; settings: after administration through different routes (oral, transdermal); cited from earlier work
[17] = EC50 in M, guinea-pig tracheal strips, read-out: pD2 (−log EC50) (converted)
[18] = rat striatum, [3H]-SCH23390, read-out: Ki
[19] = rat lung, [3H]-(−)dihydroalprenolol, read-out: Ki
[20] = higher dose (6 nmol/kg/min) s.c., 7 days

T1 sequence (Q8K4Z4 whole entry): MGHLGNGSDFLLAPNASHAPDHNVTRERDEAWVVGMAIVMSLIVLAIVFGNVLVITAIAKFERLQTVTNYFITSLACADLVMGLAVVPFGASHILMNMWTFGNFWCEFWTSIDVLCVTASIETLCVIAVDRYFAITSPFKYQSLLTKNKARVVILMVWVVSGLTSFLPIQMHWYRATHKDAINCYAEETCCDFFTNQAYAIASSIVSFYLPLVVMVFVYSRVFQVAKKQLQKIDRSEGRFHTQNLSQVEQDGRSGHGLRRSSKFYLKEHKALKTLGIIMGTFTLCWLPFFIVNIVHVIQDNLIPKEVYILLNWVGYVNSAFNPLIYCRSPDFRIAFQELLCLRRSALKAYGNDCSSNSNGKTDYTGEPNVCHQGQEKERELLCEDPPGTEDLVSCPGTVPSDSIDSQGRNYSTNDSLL
T4 sequence (P18090 whole entry): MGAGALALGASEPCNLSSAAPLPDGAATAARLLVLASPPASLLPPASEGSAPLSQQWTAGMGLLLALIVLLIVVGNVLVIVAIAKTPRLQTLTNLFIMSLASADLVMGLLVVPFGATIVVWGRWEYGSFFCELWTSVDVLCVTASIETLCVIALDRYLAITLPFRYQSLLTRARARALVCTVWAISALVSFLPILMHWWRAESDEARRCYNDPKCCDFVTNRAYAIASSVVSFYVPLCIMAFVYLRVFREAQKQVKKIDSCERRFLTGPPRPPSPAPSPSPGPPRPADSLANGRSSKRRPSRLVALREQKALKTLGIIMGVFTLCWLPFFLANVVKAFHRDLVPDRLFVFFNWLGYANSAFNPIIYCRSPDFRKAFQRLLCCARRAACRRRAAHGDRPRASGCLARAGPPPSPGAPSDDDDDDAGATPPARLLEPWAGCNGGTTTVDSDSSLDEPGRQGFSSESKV
Central DA2-receptor, sequence (P61169 whole entry): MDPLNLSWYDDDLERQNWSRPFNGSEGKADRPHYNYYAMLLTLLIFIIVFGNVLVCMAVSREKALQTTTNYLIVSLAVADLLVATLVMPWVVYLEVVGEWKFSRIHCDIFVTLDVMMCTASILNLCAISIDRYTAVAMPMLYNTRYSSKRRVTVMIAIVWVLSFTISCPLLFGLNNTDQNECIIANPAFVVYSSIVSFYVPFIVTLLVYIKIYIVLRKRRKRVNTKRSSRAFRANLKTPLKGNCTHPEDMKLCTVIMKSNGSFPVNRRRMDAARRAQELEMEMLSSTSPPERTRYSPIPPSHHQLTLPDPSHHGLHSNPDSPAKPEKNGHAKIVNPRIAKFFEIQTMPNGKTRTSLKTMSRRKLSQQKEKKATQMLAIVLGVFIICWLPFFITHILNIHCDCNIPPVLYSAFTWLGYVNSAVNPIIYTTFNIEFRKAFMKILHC
Pre-synaptic DA2 receptor, sequence (G1T1Q0 1-443): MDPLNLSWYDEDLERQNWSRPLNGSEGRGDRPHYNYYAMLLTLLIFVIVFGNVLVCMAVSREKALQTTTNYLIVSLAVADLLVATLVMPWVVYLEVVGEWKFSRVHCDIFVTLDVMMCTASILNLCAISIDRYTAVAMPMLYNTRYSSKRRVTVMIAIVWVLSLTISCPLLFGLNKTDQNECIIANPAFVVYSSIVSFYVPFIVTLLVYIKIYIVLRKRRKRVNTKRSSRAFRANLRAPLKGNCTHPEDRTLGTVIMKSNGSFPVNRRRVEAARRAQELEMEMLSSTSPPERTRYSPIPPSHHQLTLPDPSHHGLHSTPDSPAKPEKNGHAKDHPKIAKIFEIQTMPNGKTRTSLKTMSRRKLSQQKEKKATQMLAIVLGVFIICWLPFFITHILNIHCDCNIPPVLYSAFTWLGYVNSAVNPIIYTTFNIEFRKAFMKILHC
T2 sequence (P18901 whole entry): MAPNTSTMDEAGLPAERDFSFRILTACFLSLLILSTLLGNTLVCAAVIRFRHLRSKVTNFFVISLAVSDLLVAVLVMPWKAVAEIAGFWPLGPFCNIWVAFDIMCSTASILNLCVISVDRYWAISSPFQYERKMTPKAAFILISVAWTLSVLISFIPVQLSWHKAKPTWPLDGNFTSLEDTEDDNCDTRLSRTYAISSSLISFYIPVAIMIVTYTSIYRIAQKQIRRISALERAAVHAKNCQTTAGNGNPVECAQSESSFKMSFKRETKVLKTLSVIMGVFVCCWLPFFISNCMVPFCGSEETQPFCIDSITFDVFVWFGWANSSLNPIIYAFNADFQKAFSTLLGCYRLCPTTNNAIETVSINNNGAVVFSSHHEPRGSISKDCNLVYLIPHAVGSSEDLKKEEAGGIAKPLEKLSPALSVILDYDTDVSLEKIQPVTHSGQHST
β1-receptor (Cavia porcellus, UniProt H0W3H1), sequence (H0W3H1 1-470): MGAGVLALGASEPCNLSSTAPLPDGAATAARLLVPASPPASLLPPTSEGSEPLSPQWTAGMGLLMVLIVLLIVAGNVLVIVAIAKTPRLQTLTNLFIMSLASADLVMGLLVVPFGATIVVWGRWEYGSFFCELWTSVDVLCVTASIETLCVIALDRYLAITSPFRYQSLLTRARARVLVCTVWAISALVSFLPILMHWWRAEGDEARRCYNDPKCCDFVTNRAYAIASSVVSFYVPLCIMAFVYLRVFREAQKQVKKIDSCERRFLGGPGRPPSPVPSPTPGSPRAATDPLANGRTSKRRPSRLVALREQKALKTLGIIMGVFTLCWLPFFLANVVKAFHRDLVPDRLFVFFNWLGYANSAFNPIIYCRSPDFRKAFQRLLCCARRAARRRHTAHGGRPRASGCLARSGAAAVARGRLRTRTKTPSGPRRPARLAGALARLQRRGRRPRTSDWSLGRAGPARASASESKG
T3 sequence (P10608 whole entry): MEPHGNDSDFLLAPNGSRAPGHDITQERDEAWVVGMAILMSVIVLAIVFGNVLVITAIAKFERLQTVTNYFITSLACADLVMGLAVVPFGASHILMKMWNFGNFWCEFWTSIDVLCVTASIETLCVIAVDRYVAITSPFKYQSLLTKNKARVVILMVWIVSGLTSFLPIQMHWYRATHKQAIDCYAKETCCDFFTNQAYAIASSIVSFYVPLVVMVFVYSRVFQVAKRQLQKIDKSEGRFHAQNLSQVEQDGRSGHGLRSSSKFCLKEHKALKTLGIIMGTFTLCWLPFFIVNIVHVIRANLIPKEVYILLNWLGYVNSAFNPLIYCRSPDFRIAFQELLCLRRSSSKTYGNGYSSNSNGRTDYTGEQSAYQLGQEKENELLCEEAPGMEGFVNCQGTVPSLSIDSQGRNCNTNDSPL

SMILES	Emax [1] [%]	EC50 [2, 17] [µM]	effectiveness (α) ([2]; guinea-pig tracheal strips)	Ki [3] [µM]	Ki [4, 18] [µM]	effect on arterial pressure (hypotensive response) [5]	Ki [6] [µM]	Emax [7] [%]	pD2 (−log EC50) ([8]; rabbit ear artery)	effectiveness (α) ([8]; rabbit ear artery)	Ki [9] [µM]	Ki [10, 19] [µM]	Ki [11, 19] [µM]	effect on heart rate ([12]; 3 nmol/kg/min s.c., 7 days)	recovery to basal values after treatment [12]	effect on heart rate (words, summary) [12]	structural rearrangement of the crystal form (polymorphic stability) [14]	also measured
CN[C@H]1CCc2c(ccc(O)c2O)C1 [CHF 1870, (−)-(S)-5,6-dihydroxy-2-methylaminotetralin]	91	0.398	0.97	15	6.8	dose-dependent reduction of the arterial pressure which was maintained even after infusion was discontinued; also recorded: hypotensive response slightly lower but remarkably longer-lasting than that of the racemate	0.13	91	9.6	0.92	0.12	1	40	greater reduction of heart rate compared with the racemate	took place more slowly	more marked reduction of heart rate than an equivalent dose of the racemate	–	affinity for α2-adrenergic receptors relative to the dextro enantiomer (CHF 1869) ([6]; from Table 1): ~10 times; potency relative to its optical antipode ([8]; rabbit ear artery): at least 10000 times; affinity for DA2-dopaminergic receptors relative to the dextro enantiomer (CHF 1869) ([9]; from Table 1): about 20 times; reduction of arterial pressure ([12]; 3 nmol/kg/min s.c. osmotic minipump, 7 days): 20-30 mmHg; reduction of heart rate [12, 20]: about 70 beats/minute
CNC1CCc2c(ccc(O)c2O)C1 (racemic) [CHF 1024, (±)-5,6-dihydroxy-2-methylaminotetralin, reference compound]	96	–	0.96	16	–	–	0.26	81	9.0	0.94	–	–	–	–	–	–	–	EC50 [2]: 0.251 µM; Ki [4]: 13 µM; Ki ([9]; read-out: Ki): 0.29 µM; Ki [10]: 1.5 µM; Ki [11]: 45 µM; agonist activity on α1 receptor [13]: negligible
CN[C@@H]1CCc2c(ccc(O)c2O)C1 [CHF 1869]	87	0.251	0.97	21	7.4	rapid onset and disappearance of the hypotensive effects; also recorded: more rapid but less lasting response	1.6	83	<5.0	0.92	2.4	1.4	90	no reduction of heart rate	faster than with CHF 1870	no reduction of heart rate	–	activity on α2 and DA2 receptors ([8]; isolated tissue preparations): poor activity on α2 and DA2 receptors; hypotensive effect ([12]; 3 nmol/kg/min s.c., 7 days): slight, although noticeable, hypotensive effect; effect on heart rate [12, 20]: no reduction of heart rate is observed, which even increases during the first 2-3 days of treatment; hypotensive response [12, 20]: comparable to that caused by its optical antipode
CN[C@H]1CCc2c(ccc(OC(=O)C(C)C)c2OC(=O)C(C)C)C1.Cl [CHF 1810, (−)-(S)-5,6-diisobutyroyloxy-2-methylaminotetralin hydrochloride]	–	–	–	–	–	–	–	–	–	–	–	–	–	–	–	–	does not show any structural rearrangement below 100 °C	–
CNC1CCc2c(ccc(OC(=O)C(C)C)c2OC(=O)C(C)C)C1 (racemic) [CHF 1035, (±)-(R,S)-5,6-Diisobutyroyloxy-2-methylaminotetralin]	–	–	–	–	–	–	–	–	–	–	–	–	–	–	–	–	form I shows two remarkable structural rearrangements	AUC of the dextro form relative to that of the laevo form [15]: about one half; conversion into the desesterified form CHF 1024 [16]: quickly and completely converted
